Laboratory results taken from patent US20220033448A1, “METHODS FOR AGGREGATION OF PROTEINS” (priority 2011, published 2022).
≈ marks a conversion by molar mass, not a printed value. Non-standard residues stand in square brackets, D forms with d. Residues, ends and D or L forms follow the SMILES beside them. No end group written: not given here. PEG3 = NCCOCCOCCOCCC(=O)O; AEEA = NCCOCCOCC(=O)O

Tests used:
[1] = tested on: S. epidermidis
Description: (§1) Bacteria were grown in a shaking incubator at 37° C. and 160rpm in 50 ml BHI , using individual colonies retrieved from a fresh overnight TSA-sheep blood plate. The cultures were grown to a density of approximately 1×10^8cells/ml and then diluted to 5×10^5 cells/ml in CAMHB (Mc Farland 0.5). Each well contained 100p.I (50p.I of peptide containing MHB plus 50 μl inoculum). The final cell density was 1×10^5 to 5×10^5/ml. After addition of the cell suspension, plates were incubated at 37° C. for 18 to 24 hours. The optical density at 590 nm (OD590) of each well was measured after 5 seconds of shaking the plate using Perkin Elmer spectrophotometer (1420 Multilabel Counter Vicotr 3). […] Each well, where no growth was observed, was also plated on TSA-sheep blood agar plates, incubated at 37° C. overnight and visually inspected.
(§2) A microbroth dilution method was used with twofold serial dilutions in CAMHB (according to EMEA guidelines) was used for screening of peptide activity, with concentrations ranging from 0.3 μg/mIto 200 μg/ml.

[2] = tested on: E. faecalis
Description: as §1, §2

[3] = tested on: E. coli
Description: as §1, §2

[4] = tested on: B. cereus
Description: as §1, §2

[5] = tested on: S. hominis
Description: as §1, §2

[6] = tested on: Nocardia asteroides
Description: as §1, §2

[7] = tested on: Corynebacterium
Description: as §1, §2

[8] = tested on: Salmonella typhi ATCC14028; assay type: cell-based
[9] = tested on: Klebsiella pneumoniae; assay type: cell-based
[10] = tested on: S. aureus
[11] = tested on: human erythrocytes; assay type: cell-based
From the text: The detergent Tween was used as a positive control, causing 100% lysis of RBCs.

[12] = molecular target: β-Gal (Escherichia coli, UniProt P00722); conditions: for binding to β-Gal on blot: 250 nM biotinylated peptide, 1 h, complete BL21 cell lysate
Chain of β-Gal (P00722 2-1024 with the stated changes limits assumed): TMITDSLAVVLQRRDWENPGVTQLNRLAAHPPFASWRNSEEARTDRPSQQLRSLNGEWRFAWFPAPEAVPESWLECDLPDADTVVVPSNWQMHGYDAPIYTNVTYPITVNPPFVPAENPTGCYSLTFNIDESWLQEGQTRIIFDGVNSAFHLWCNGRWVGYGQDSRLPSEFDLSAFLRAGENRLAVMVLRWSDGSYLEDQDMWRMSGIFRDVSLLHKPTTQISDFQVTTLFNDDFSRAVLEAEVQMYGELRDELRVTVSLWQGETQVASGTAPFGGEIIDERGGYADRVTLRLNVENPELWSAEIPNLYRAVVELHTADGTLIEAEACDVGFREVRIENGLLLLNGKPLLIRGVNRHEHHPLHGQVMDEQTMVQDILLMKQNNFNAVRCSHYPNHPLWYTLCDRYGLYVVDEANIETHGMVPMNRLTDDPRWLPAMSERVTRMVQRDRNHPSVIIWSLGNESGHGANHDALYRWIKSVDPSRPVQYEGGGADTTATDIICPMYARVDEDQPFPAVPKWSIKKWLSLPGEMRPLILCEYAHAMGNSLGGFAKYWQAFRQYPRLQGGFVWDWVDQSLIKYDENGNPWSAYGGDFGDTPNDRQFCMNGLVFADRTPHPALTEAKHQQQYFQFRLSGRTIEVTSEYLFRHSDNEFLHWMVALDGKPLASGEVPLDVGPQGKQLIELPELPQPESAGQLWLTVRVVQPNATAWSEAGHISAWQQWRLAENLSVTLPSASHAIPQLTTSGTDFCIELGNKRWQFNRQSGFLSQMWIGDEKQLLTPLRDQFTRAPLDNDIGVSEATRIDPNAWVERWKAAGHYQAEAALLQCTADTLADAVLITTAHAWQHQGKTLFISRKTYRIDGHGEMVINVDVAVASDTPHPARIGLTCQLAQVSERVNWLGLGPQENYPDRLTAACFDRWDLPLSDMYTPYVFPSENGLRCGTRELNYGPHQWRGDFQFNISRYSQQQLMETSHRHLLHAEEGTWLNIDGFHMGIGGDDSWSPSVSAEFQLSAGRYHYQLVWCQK
Description: A 0.4 ml suspension of BL21 cells (OD600 nm ^˜1.2) expressing β-Gal (grown under induced conditions) was centrifuged at 5000 g for 10 min at room temperature. The supernatant was discarded and 0.8 ml of bacterial protein extraction reagent (B-PER, Thermo scientific) containing protease inhibitor was added to the bacterial pellet and vortex mixed for 30 s in order to lyse the cells. To 21 μl of the complete BL21 cell lysate 5 μl of 5× SDS sample loading buffer (Fermentas) was added and heated at 99° C. for 3 min. This mixture (26 μl per well) was loaded in a 10-well NuPage 4-12% Bis-Tris gel and the proteins were separated under denaturing conditions. The separated proteins were then transferred to a nitrocellulose membrane and blocked overnight with 1% BSA in phosphate buffer saline, 0.05% Tween 20, pH 7.4 (PBS-T) at 4° C. Each lane of the membrane was cut out and separately incubated with either rabbit anti-β-Gal antibody either biotinylated Tango 1, either biotinylated Tango 2, or the biotinylated off-target peptide or either a biotinylated Tango 2 mutant peptide.
This was followed by 3×10 min wash with PBS-T and finally rinsed in deionised water for 10 min. The membrane strip was exposed to chemiluminescence HRP substrate reagent (SuperSignal West Femto Maximum Sensitivity Substrate, Thermo Fisher Scientific) and target protein visualized using Bio-Rad ChemiDoc XRS imaging system.
A stock solution (10 μM) of each of the biotinylated peptides was prepared in 100% DMSO. The peptide stock was diluted (1/400) in 10 mM MES buffer, 100 mM Trehalose, 0.05% Tween 20, pH 5.5 to obtain a final concentration of the peptide of 25 nM. The freshly prepared peptide solution was immediately added to the membrane strip and gently agitated at room temperature. After 15 min the peptide solution was decanted and the membrane strip was washed 3×10 min with 10 mM MES buffer, 0.05% Tween 20, pH 5.5 and further processed as described herein before.

CC[C@@H](C)[C@@H](NC(=O)[C@H](N)CCCNC(=N)N)C(=O)N[C@H](CC(C)C)C(=O)N[C@H](CC(C)C)C(=O)NCC(=O)N[C@H](CC(C)C)C(=O)N[C@@H](C(=O)N[C@H](CCCNC(=N)N)C(=O)N[C@H](CCCNC(=N)N)C(=O)NCC(=O)N[C@H](CO)C(=O)N[C@H](CCCNC(=N)N)C(=O)N[C@@H](C(=O)N[C@H](CC(C)C)C(=O)N[C@H](CC(C)C)C(=O)NCC(=O)N[C@H](CC(C)C)C(=O)N[C@@H](C(=O)N[C@H](CCCNC(=N)N)C(=O)N[C@H](CCCNC(=N)N)C(=O)O)[C@H](C)CC)[C@H](C)CC)[C@H](C)CC [DAA] (H-[dR][dI][dL][dL]G[dL][dI][dR][dR]G[dS][dR][dI][dL][dL]G[dL][dI][dR][dR]-OH; N-terminus and C-terminus assumed)
Minimum inhibitory concentrations MIC90 [1]: 1.5 µg/mL (≈ 0.64 µM) | Minimum inhibitory concentrations MIC90 [2]: 6 µg/mL (≈ 2.56 µM) | Minimum inhibitory concentrations MIC90 [3]: 25 µg/mL (≈ 10.7 µM) | Minimum inhibitory concentrations MIC90 [4]: 6 µg/mL (≈ 2.56 µM) | Minimum inhibitory concentrations MIC90 [5]: 1.5 µg/mL (≈ 0.64 µM) | Minimum inhibitory concentrations MIC90 [6]: >200 µg/mL | Minimum inhibitory concentrations MIC90 [7]: >200 µg/mL | Minimum inhibitory concentrations MIC90 [8]: 100 µg/mL (≈ 42.6 µM) | Minimum inhibitory concentrations MIC90 [9]: 25 µg/mL (≈ 10.7 µM)

CC[C@H](C)[C@H](NC(=O)[C@H](CC(C)C)NC(=O)CNC(=O)[C@H](CC(C)C)NC(=O)[C@H](CC(C)C)NC(=O)[C@@H](NC(=O)[C@H](CCCNC(=N)N)NC(=O)[C@H](CO)NC(=O)CNC(=O)[C@H](CCCNC(=N)N)NC(=O)[C@H](CCCNC(=N)N)NC(=O)[C@@H](NC(=O)[C@H](CC(C)C)NC(=O)CNC(=O)[C@H](CC(C)C)NC(=O)[C@H](CC(C)C)NC(=O)[C@@H](NC(=O)[C@H](CCCNC(=N)N)NC(=O)COCCOCCN)[C@@H](C)CC)[C@@H](C)CC)[C@@H](C)CC)C(=O)N[C@@H](CCCNC(=N)N)C(=O)N[C@@H](CCCNC(=N)N)C(=O)O [P2153] (H-[AEEA]RILLGLIRRGSRILLGLIRR-OH)
Minimum inhibitory concentrations MIC90 [1]: 12.5 µg/mL (≈ 5.02 µM) | Minimum inhibitory concentrations MIC90 [2]: 25 µg/mL (≈ 10 µM) | Minimum inhibitory concentrations MIC90 [3]: 25 µg/mL (≈ 10 µM) | Minimum inhibitory concentrations MIC90 [4]: 6 µg/mL (≈ 2.41 µM) | Minimum inhibitory concentrations MIC90 [5]: 3 µg/mL (≈ 1.2 µM) | Minimum inhibitory concentrations MIC90 [6]: 6 µg/mL (≈ 2.41 µM) | Minimum inhibitory concentrations MIC90 [8]: >200 µg/mL | Minimum inhibitory concentrations MIC90 [9]: 50 µg/mL (≈ 20.1 µM)

CC[C@H](C)[C@H](NC(=O)[C@H](CC(C)C)NC(=O)CNC(=O)[C@H](CC(C)C)NC(=O)[C@H](CC(C)C)NC(=O)[C@@H](NC(=O)[C@H](CCCNC(=N)N)NC(=O)[C@H](CO)NC(=O)CNC(=O)[C@H](CCCNC(=N)N)NC(=O)[C@H](CCCNC(=N)N)NC(=O)[C@@H](NC(=O)[C@H](CC(C)C)NC(=O)CNC(=O)[C@H](CC(C)C)NC(=O)[C@H](CC(C)C)NC(=O)[C@@H](NC(=O)[C@H](CCCNC(=N)N)NC(=O)CCOCCOCCOCCN)[C@@H](C)CC)[C@@H](C)CC)[C@@H](C)CC)C(=O)N[C@@H](CCCNC(=N)N)C(=O)N[C@@H](CCCNC(=N)N)C(=O)O [P2154] (H-[PEG3]RILLGLIRRGSRILLGLIRR-OH)
Minimum inhibitory concentrations MIC90 [1]: 12.5 µg/mL (≈ 4.91 µM) | Minimum inhibitory concentrations MIC90 [2]: 12.5 µg/mL (≈ 4.91 µM) | Minimum inhibitory concentrations MIC90 [3]: 50 µg/mL (≈ 19.6 µM) | Minimum inhibitory concentrations MIC90 [4]: 12.5 µg/mL (≈ 4.91 µM) | Minimum inhibitory concentrations MIC90 [5]: 3 µg/mL (≈ 1.18 µM) | Minimum inhibitory concentrations MIC90 [6]: 6 µg/mL (≈ 2.35 µM) | Minimum inhibitory concentrations MIC90 [8]: >200 µg/mL | Minimum inhibitory concentrations MIC90 [9]: 100 µg/mL (≈ 39.2 µM)

CC[C@H](C)[C@H](NC(=O)[C@H](CC(C)C)NC(=O)CNC(=O)[C@H](CC(C)C)NC(=O)[C@H](CC(C)C)NC(=O)[C@@H](NC(=O)[C@H](CCCNC(=N)N)NC(=O)COCCOCCNC(=O)[C@H](CCCNC(=N)N)NC(=O)[C@H](CCCNC(=N)N)NC(=O)[C@@H](NC(=O)[C@H](CC(C)C)NC(=O)CNC(=O)[C@H](CC(C)C)NC(=O)[C@H](CC(C)C)NC(=O)[C@@H](NC(=O)[C@@H](N)CCCNC(=N)N)[C@@H](C)CC)[C@@H](C)CC)[C@@H](C)CC)C(=O)N[C@@H](CCCNC(=N)N)C(=O)N[C@@H](CCCNC(=N)N)C(N)=O [P2175/P1] (H-RILLGLIRR[AEEA]RILLGLIRR-NH2)
Minimum inhibitory concentrations MIC90 [1]: 12.5 µg/mL (≈ 5.33 µM) | Minimum inhibitory concentrations MIC90 [2]: 12.5 µg/mL (≈ 5.33 µM) | Minimum inhibitory concentrations MIC90 [3]: 25 µg/mL (≈ 10.7 µM) | Minimum inhibitory concentrations MIC90 [4]: 12.5 µg/mL (≈ 5.33 µM) | Minimum inhibitory concentrations MIC90 [5]: 3 µg/mL (≈ 1.28 µM) | Minimum inhibitory concentrations MIC90 [6]: 3 µg/mL (≈ 1.28 µM) | Minimum inhibitory concentrations MIC90 [7]: >200 µg/mL | Minimum inhibitory concentrations MIC90 [8]: 50 µg/mL (≈ 21.3 µM) | Minimum inhibitory concentrations MIC90 [9]: 50 µg/mL (≈ 21.3 µM)

CC[C@H](C)[C@H](NC(=O)[C@H](CC(C)C)NC(=O)CNC(=O)[C@H](CC(C)C)NC(=O)[C@H](CC(C)C)NC(=O)[C@@H](NC(=O)[C@H](CCCNC(=N)N)NC(=O)COCCOCCNC(=O)[C@H](CCCNC(=N)N)NC(=O)[C@H](CCCNC(=N)N)NC(=O)[C@@H](NC(=O)[C@H](CC(C)C)NC(=O)CNC(=O)[C@H](CC(C)C)NC(=O)[C@H](CC(C)C)NC(=O)[C@@H](NC(=O)[C@@H](N)CCCNC(=N)N)[C@@H](C)CC)[C@@H](C)CC)[C@@H](C)CC)C(=O)N[C@@H](CCCNC(=N)N)C(=O)N[C@@H](CCCNC(=N)N)C(N)=O [P2175/P2] (H-RILLGLIRR[AEEA]RILLGLIRR-NH2)
Minimum inhibitory concentrations MIC90 [1]: 6 µg/mL (≈ 2.56 µM) | Minimum inhibitory concentrations MIC90 [2]: 6 µg/mL (≈ 2.56 µM) | Minimum inhibitory concentrations MIC90 [3]: 50 µg/mL (≈ 21.3 µM) | Minimum inhibitory concentrations MIC90 [4]: 12.5 µg/mL (≈ 5.33 µM) | Minimum inhibitory concentrations MIC90 [5]: 1.5 µg/mL (≈ 0.64 µM) | Minimum inhibitory concentrations MIC90 [6]: 6 µg/mL (≈ 2.56 µM) | Minimum inhibitory concentrations MIC90 [7]: >200 µg/mL | Minimum inhibitory concentrations MIC90 [8]: 25 µg/mL (≈ 10.7 µM) | Minimum inhibitory concentrations MIC90 [9]: 100 µg/mL (≈ 42.6 µM)

Ac-RILLGLIRRGSRILLGLIRR-NH2 [P2170/P1]
Minimum inhibitory concentrations MIC90 [1]: 6 µg/mL | Minimum inhibitory concentrations MIC90 [2]: 12.5 µg/mL | Minimum inhibitory concentrations MIC90 [3]: 25 µg/mL | Minimum inhibitory concentrations MIC90 [4]: 6 µg/mL | Minimum inhibitory concentrations MIC90 [5]: 3 µg/mL | Minimum inhibitory concentrations MIC90 [6]: 6 µg/mL | Minimum inhibitory concentrations MIC90 [10]: 12.5 µg/mL | Minimum inhibitory concentrations MIC90 [7]: >200 µg/mL | Minimum inhibitory concentrations MIC90 [8]: 100 µg/mL | Minimum inhibitory concentrations MIC90 [9]: >200 µg/mL

Ac-RILLGLIRRGSRILLGLIRR-NH2 [P2170/P2]
Minimum inhibitory concentrations MIC90 [1]: 12.5 µg/mL | Minimum inhibitory concentrations MIC90 [2]: 12.5 µg/mL | Minimum inhibitory concentrations MIC90 [3]: 25 µg/mL | Minimum inhibitory concentrations MIC90 [4]: 6 µg/mL | Minimum inhibitory concentrations MIC90 [5]: 3 µg/mL | Minimum inhibitory concentrations MIC90 [6]: 3 µg/mL | Minimum inhibitory concentrations MIC90 [10]: 12.5 µg/mL | Minimum inhibitory concentrations MIC90 [7]: 100 µg/mL | Minimum inhibitory concentrations MIC90 [8]: 100 µg/mL | Minimum inhibitory concentrations MIC90 [9]: >200 µg/mL

H-RILLGLIRRGSRILLGLIRR-OH [P2151]
Minimum inhibitory concentrations MIC90 [1]: 12.5 µg/mL | Minimum inhibitory concentrations MIC90 [2]: 25 µg/mL | Minimum inhibitory concentrations MIC90 [3]: 25 µg/mL | Minimum inhibitory concentrations MIC90 [4]: 12.5 µg/mL | Minimum inhibitory concentrations MIC90 [5]: 3 µg/mL | Minimum inhibitory concentrations MIC90 [6]: 12.5 µg/mL | Minimum inhibitory concentrations MIC90 [8]: 100 µg/mL | Minimum inhibitory concentrations MIC90 [9]: 25 µg/mL

RFFIGLSRRGSRIQAYLYRR [Hit50A]
MIC values against B.cereus ATCC [4]: 50 µg/mL | MIC values against MRSA 326 [10]: 50 µg/mL | MIC values against S.aureus ATCC 29213 [10]: 100 µg/mL

RLFNFLKRGSRLFNFLKR [C29/Hit11]
MIC values against B.cereus ATCC [4]: 6 to 12.5 µg/mL | hemolytic activity [11]: no significant hemolytic activity at clinically relevant concentrations | MIC values against MRSA 326 [10]: 12.5 µg/mL | MIC values against S.aureus ATCC 29213 [10]: 12.5 to 25 µg/mL | MIC values against Corynebacterium [7]: 6 µg/mL

RRIIGIIARPPRVLVTLLRR [mtop_22]
MIC value [1]: 50 µg/mL | MIC value [10]: <200 µg/mL

RRIILFILRPPRLILFLGRR [mtop_1]
MIC value [1]: 50 µg/mL | MIC value [10]: 200 µg/mL

RRILGLIARPPRIAFVILRR [mtop_18]
MIC value [1]: 50 µg/mL | MIC value [10]: <200 µg/mL

RRILLGLIRPPRTIIGLVRR [mtop_11]
MIC value [1]: 12.5 µg/mL | MIC value [10]: >200 µg/mL

RRILLLIARPPRILLGAIRR [mtop_12]
MIC value [1]: 12.5 µg/mL | MIC value [10]: >200 µg/mL

RRLLGLIIRPPRAIALTLRR [mtop_17]
MIC value [1]: 100 µg/mL | MIC value [10]: 50 µg/mL

RRWVSMLLRRGSRWVSMLLRR [Hit14]
MIC values against S.epidermidis ATCC 12228 [1]: 50 µg/mL | MIC values against B.cereus ATCC [4]: 100 µg/mL

RWVSMLLRRGSRVGYVIARR [Hit37]
MIC values against B.cereus ATCC [4]: >100 µg/mL | MIC values against MRSA 326 [10]: 100 µg/mL | MIC values against S.aureus ATCC 29213 [10]: 100 µg/mL

RWVSMLLRRGSRWVSMLLRR [Hit1]
MIC values against B.cereus ATCC [4]: 6 µg/mL | HD50 (concentration at which 50% of red blood cells are lysed) [11]: 25 to 50 µg/mL | MIC [10]: 3 µg/mL | MIC in presence of 50% FBS [10]: 25 µg/mL | MIC values against MRSA 326 [10]: 6 µg/mL | MIC values against Corynebacterium [7]: 3 µg/mL

b~DVIIWSLGNR~b [Complimentary charge]
specificity of binding to β-gal versus serum proteins ([12]; competitive PepBlot, 7% clinical serum in adjacent lane, 25 nM, 15 min): does not cross react with proteins in the serum

b~RLAVVLQR [Tango 1]
binding to β-Gal on blot [12]: weaker binding

b~RPITVNPPFR [Off-Target]
binding to β-Gal on blot [12]: no interaction

b~RVIIWSLGNR [Tango 2]
binding to β-Gal on blot [12]: strong affinity to the β-Gal

b~RVIPWSLGNR [Tango 2 Mut_2]
binding to β-Gal on blot [12]: still bind efficiently to β-Gal

b~RVPIWSLGNR [Tango 2 Mut_1]
binding to β-Gal on blot [12]: still bind efficiently to β-Gal
